Test results reported in US9695149B2, “1,2,6-substituted benzimidazoles as flap modulators” (JANSSEN PHARMACEUTICA NV, priority 2013, dated 2017).
Counter-ions that a name gives are not always drawn.

Columns and labels:
human FLAP = human FLAP (Homo sapiens (Human), UniProt P20292); assay: FLAP binding assay (HTRF format); settings: human FLAP-containing Sf-9 membranes, wild type; average of runs
Procedure: (§1) The ability of the compounds of the present invention to treat a FLAP-mediated disease and/or disorder, or associated symptoms or complications thereof, was determined using the following procedures. Binding assay data represent the average value obtained from two different assay plates, with samples run in duplicate on each plate. Human whole blood assay data represent a single replicate on an assay plate using whole blood from at least one healthy donor.
The assay below is used to test the modulatory activity of compounds against FLAP. Human and mouse FLAP-encoding DNA was amplified by polymerase chain reaction and cloned into pFastBac1 (Invitrogen) with a NH2-terminal 6-His tag for expression in Spodoptera frugiperda (Sf-9) cells. FLAP-containing membranes were prepared as was a FITC-labeled FLAP modulator (3-(3-(tert-butylthio)-1-(4-chlorobenzyl)-5-(quinolin-2-ylmethoxy)-1H-indol-2-yl)-2,2-dimethylpropanoic acid). The FLAP binding assay is performed in HTRF format (homogeneous time resolved fluorescence). […] The reaction is allowed to proceed for two hours after which the plate is read on an Envision plate reader in HTRF mode. Data are expressed as a HTRF ratio.
For human FLAP binding assays, data are analyzed with 3DX Explorer software. […] For analysis, data from multiple runs are averaged and each compound may be tested in 2 to 20 runs. Each run comprises two plates and each plate includes duplicates. Data from each plate is averaged and data are imported into 3DX. The data from multiple runs are aggregated as the average of duplicates of the calculated ratios in order to calculate Ki and IC50 values. Numbers in parentheses are the number of runs for the assay.

[1] = system: leukotriene pathway in human whole blood; assay: Human whole blood assay (LTB4, A23187-stimulated); assay type: cell-based; settings: human whole blood diluted 1:1 in RPMI, calcium ionophore A23187 7 μg/mL, 30 min
Procedure: as §1
An in vitro cellular assay was performed using human whole blood collected in heparin-containing tubes, which was used to test the ability of compounds to modulate the leukotriene pathway in human whole blood. The blood was diluted 1:1 in RPMI medium, pre-incubated for 15 min at 37° Celsius with test compounds at various concentrations, and then stimulated with calcium ionophore, A23187 (7 μg/mL), for 30 min at 37° Celsius. The samples were then centrifuged and plasma was removed. The plasma was diluted in assay buffer and LTB4 levels were measured using a commercial kit (Enzo Life Sciences). The concentration of each compound that was required for half-maximal inhibition (modulation) of […] (IC50) was calculated by a 4-parameter equation using the program GraphPad Prism (GraphPad software). For analysis, data are imported into 3DX and aggregated as the average of duplicates of the calculated ratios in order to calculate Ki and IC50 values. Numbers in parentheses are the number of runs for the assay.

human FLAP, sequence (P20292 whole entry): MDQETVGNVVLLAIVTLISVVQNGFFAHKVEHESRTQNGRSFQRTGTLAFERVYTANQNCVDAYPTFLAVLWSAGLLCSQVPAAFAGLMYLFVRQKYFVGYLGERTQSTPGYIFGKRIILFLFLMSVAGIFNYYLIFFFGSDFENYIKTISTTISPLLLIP

Row | SMILES | Ki (human FLAP) | IC50 ([1]; Homo sapiens, 0.5 h) | IC50 [1]
1 | Cc1cnc(COc2ccc3nc(C4CCCC[C@H]4C(=O)O)n(Cc4ccc(N5CCC(C(F)(F)F)CC5)cc4F)c3c2)c(F)c1 (mixture of isomers) [Example 192, racemic cis-2-(6-[(3-Fluoro-5-methylpyridin-2-yl)methoxy]-1-{2-fluoro-4-[4-(trifluoromethyl)piperidin-1-yl]benzyl}-1H-benzimidazol-2-yl)cyclohexanecarboxylic acid] | 0.95 nM | 110 nM | 
2 | Cc1ccc(COc2ccc3nc(C4[C@H](C(=O)O)C4(C)C)n(Cc4cccc(C)c4)c3c2)nc1 (mixture of isomers) [Example 202, racemic cis-2,2-Dimethyl-3-{1-(3-methylbenzyl)-6-[(5-methylpyridin-2-yl)methoxy]-1H-benzimidazol-2-yl}cyclopropanecarboxylic acid] | ~750 nM |  | 
3 | Cc1ccc(COc2ccc3nc(C4[C@H](C(=O)O)C4(C)C)n(Cc4ccccc4C)c3c2)nc1 (mixture of isomers) [Example 210, racemic cis-2,2-Dimethyl-3-{1-(2-methylbenzyl)-6-[(5-methylpyridin-2-yl)methoxy]-1H-benzimidazol-2-yl}cyclopropanecarboxylic acid] | ~1750 nM |  | 
4 | Cc1ccc(COc2ccc3nc(C4[C@H](C(=O)O)C4(C)C)n(Cc4cc(Br)ccc4F)c3c2)nc1 (mixture of isomers) [Example 227, racemic cis-3-{1-(5-Bromo-2-fluorobenzyl)-6-[(5-methylpyridin-2-yl)methoxy]-1H-benzimidazol-2-yl}-2,2-dimethylcyclopropanecarboxylic acid] |  | 4520 nM | 
5 | CCC(CC)(Cc1nc2ccc(OCc3ccc(C)cn3)cc2n1Cc1cccc(-c2cnc(OC)nc2)c1)C(=O)O [Example 196, 2-Ethyl-2-({1-[3-(2-methoxypyrimidin-5-yl)benzyl]-6-[(5-methylpyridin-2-yl)methoxy]-1H-benzimidazol-2-yl}methyl)butanoic acid] | ~500 nM |  | 
6 | CCC(CC)(Cc1nc2ccc(OCc3ccn(C)n3)cc2n1Cc1cccc(-c2cnc(OC)nc2)c1)C(=O)O [Example 213, 2-Ethyl-2-({1-[3-(2-methoxypyrimidin-5-yl)benzyl]-6-[(1-methyl-1H-pyrazol-3-yl)methoxy]-1H-benzimidazol-2-yl}methyl)butanoic acid] | ~940 nM |  | 
7 | CCC(CC)(Cc1nc2ccc(OCc3ccn(C)n3)cc2n1Cc1ccc(-c2cnc(OC)nc2)cc1F)C(=O)O [Example 214, 2-Ethyl-2-({1-[2-fluoro-4-(2-methoxypyrimidin-5-yl)benzyl]-6-[(1-methyl-1H-pyrazol-3-yl)methoxy]-1H-benzimidazol-2-yl}methyl)butanoic acid] | ~2500 nM |  | 
8 | CCC(CC)(Cc1nc2ccc(OCc3ccn(C)n3)cc2n1Cc1ccc(N2CCC(F)(F)C2)cc1)C(=O)O [Example 216, 2-({1-[4-(3,3-Difluoropyrrolidin-1-yl)benzyl]-6-[(1-methyl-1H-pyrazol-3-yl)methoxy]-1H-benzimidazol-2-yl}methyl)-2-ethylbutanoic acid] | ~180 nM |  | 
9 | Cc1ccc(COc2ccc3nc(CC(C)(C)C(=O)O)n(Cc4cc(Br)ccc4F)c3c2)nc1 [Example 225, 3-{1-(5-Bromo-2-fluorobenzyl)-6-[(5-methylpyridin-2-yl)methoxy]-1H-benzimidazol-2-yl}-2,2-dimethylpropanoic acid] | ~870 nM |  | 
10 | Cc1ccc(COc2ccc3nc(CC(C)(C)C(=O)O)n(Cc4cccc(Br)c4)c3c2)nc1 [Example 232, 3-{1-(3-Bromobenzyl)-6-[(5-methylpyridin-2-yl)methoxy]-1H-benzimidazol-2-yl}-2,2-dimethylpropanoic acid as the trifluoroacetic acid salt] | ~750 nM |  | 
11 | CCC(CC)(Cc1nc2ccc(OCc3ccn(C)n3)cc2n1Cc1cc(Br)ccc1F)C(=O)O [Example 234, 2-({1-(5-Bromo-2-fluorobenzyl)-6-[(1-methyl-1H-pyrazol-3-yl)methoxy]-1H-benzimidazol-2-yl}methyl)-2-ethylbutanoic acid] | > 10000 nM |  | 

Now from value to compound:

Row | Ki (human FLAP) | IC50 ([1]; Homo sapiens, 0.5 h) | IC50 [1] | SMILES
12 | 19 nM | 1430 nM |  | COc1ncc(-c2cccc(Cn3c(C4CCCC[C@H]4C(=O)O)nc4ccc(OCc5ccc(C)cn5)cc43)c2)cn1 (mixture of isomers) [Example 195, racemic cis-2-{1-[3-(2-Methoxypyrimidin-5-yl)benzyl]-6-[(5-methylpyridin-2-yl)methoxy]-1H-benzimidazol-2-yl}cyclohexanecarboxylic acid]
13 | ~2500 nM |  |  | Cn1ccc(COc2ccc3nc(C4CCCC[C@H]4C(=O)O)n(Cc4cccc(C#N)c4)c3c2)n1 (mixture of isomers) [Example 199, racemic cis-2-{1-(3-Cyanobenzyl)-6-[(1-methyl-1H-pyrazol-3-yl)methoxy]-1H-benzimidazol-2-yl}cyclohexanecarboxylic acid]
14 | 30 nM | 3140 nM |  | Cc1ccc(COc2ccc3nc(C4CCCC[C@H]4C(=O)O)n(Cc4cccc(C)c4)c3c2)nc1 (mixture of isomers) [Example 200, racemic trans-2-{1-(3-Methylbenzyl)-6-[(5-methylpyridin-2-yl)methoxy]-1H-benzimidazol-2-yl}cyclohexanecarboxylic acid]
15 | 60 nM |  |  | Cc1ccc(COc2ccc3nc(C4CCCC[C@H]4C(=O)O)n(Cc4cccc(Br)c4)c3c2)nc1 (mixture of isomers) [Example 217, racemic trans-2-{1-(3-Bromobenzyl)-6-[(5-methylpyridin-2-yl)methoxy]-1H-benzimidazol-2-yl}cyclohexanecarboxylic acid]
16 |  | 4170 nM |  | Cc1ccc(COc2ccc3nc(C4CCCC[C@H]4C(=O)O)n(Cc4cc(Br)ccc4F)c3c2)nc1 (mixture of isomers) [Example 218, racemic trans-2-{1-(5-Bromo-2-fluorobenzyl)-6-[(5-methylpyridin-2-yl)methoxy]-1H-benzimidazol-2-yl}cyclohexanecarboxylic acid]
17 |  | 650 nM |  | Cc1ccc(COc2ccc3nc(C4CCCC[C@H]4C(=O)O)n(Cc4cccc(N5CCC(F)(F)C5)c4)c3c2)nc1 (mixture of isomers) [Example 220, racemic cis-2-{1-[3-(3,3-Difluoropyrrolidin-1-yl)benzyl]-6-[(5-methylpyridin-2-yl)methoxy]-1H-benzimidazol-2-yl}cyclohexanecarboxylic acid]
18 |  |  | 320 nM | Cc1ccc(COc2ccc3nc(C4CCCC[C@H]4C(=O)O)n(Cc4cccc(N5CCCCC5)c4)c3c2)nc1 (mixture of isomers) [Example 223, racemic cis-2-{6-[(5-Methylpyridin-2-yl)methoxy]-1-(3-piperidin-1-ylbenzyl)-1H-benzimidazol-2-yl}cyclohexanecarboxylic acid]
19 |  |  | 2170 nM | Cc1ccc(COc2ccc3nc(C4CCCC[C@H]4C(=O)O)n(Cc4cccc(N5CCCCC5)c4)c3c2)nc1 (mixture of isomers) [Example 224, racemic trans-2-{6-[(5-Methylpyridin-2-yl)methoxy]-1-(3-piperidin-1-ylbenzyl)-1H-benzimidazol-2-yl}cyclohexanecarboxylic acid]
20 |  |  | 6640 nM | Cc1ccc(COc2ccc3nc([C@H]4CCCC[C@H]4C(=O)O)n(Cc4cc(Br)ccc4F)c3c2)nc1 (racemic) [Example 229, racemic-cis-2-{1-(5-Bromo-2-fluorobenzyl)-6-[(5-methylpyridin-2-yl)methoxy]-1H-benzimidazol-2-yl}cyclohexanecarboxylic acid]
21 | > 10000 nM |  |  | Cn1ccc(COc2ccc3nc(C4CCCC[C@H]4C(=O)O)n(Cc4cccc(Br)c4)c3c2)n1 (single isomer, unassigned) [Example 198, (1R*,2S*)-2-{1-(3-Bromobenzyl)-6-[(1-methyl-1H-pyrazol-3-yl)methoxy]-1H-benzimidazol-2-yl}cyclohexanecarboxylic acid]
